{"source": "paper PMC5537589", "about": "“A peptide-based viral inactivator inhibits Zika virus infection in pregnant mice and fetuses” (Nature Communications, 2017)", "key": {"[1]": {"test_system": "ZIKV-infected BHK21 cells", "assay_type": "binding, Zika virus", "details": "peer review file", "procedure": "Supplementary Figure 4: Binding of Z2-Cy5 to ZIKV-infected BHK21 cells. (a) Immunofluorescence staining assay.\nScale bar = 100 μm. (b) Flow cytometry assay. After the incubation of ZIKV or mock infected BHK21 cells with Z2-Cy5, the cells were washed five times and processed by a BD Accuri C6 Flow Cytometer.\nBHK21 cells. As shown in Supplementary Figure 4, E protein (green, stained by anti-E mAb 4G2) and Z2-Cy5 (red) overlapped and colocated together (Supplementary Figure 4A). In the flow cytometry assay (Supplementary Figure 4B), Z2-Cy5 bound with 63.5% […]\nZIKV-infected BHK21 cells.\nSupplementary Figure 4: Binding of Z2-Cy5 to ZIKV-infected BHK21 cells. (A) […]\nScale bar = 100 μm. (B) Flow cytometry assay. After the incubation of ZIKV- or mock- […]\nThe result was added to the revised manuscript: “Similar results were […]\nobtained from ZIKV-infected BHK21cells (Supplementary Figure 4).”\nThe related methods were added in the revised manuscript:\n“To test the binding of Z2 to ZIKV- infected BHK21 cells, BHK21 cells seeded in cover slips were ZIKV or mock infected, fixed with 4 % PFA, perforated by 0.2% Triton X-100 and blocked with 3% BSA. The cells were then incubated with anti-E mAb 4G2.\nAfter 5 washes, the cells were incubated with Alexa Fluor 488-labeled donkey anti-mouse antibody and Z2-Cy5 at RT for 1 h. […]"}, "[2]": {"test": "In vivo fluorescence imaging of distribution in pregnant ICR mice and fetuses"}, "[3]": {"test_system": "ZIKV virions", "test": "Sucrose density gradient assay", "details": "100 μM peptide in 1% DMSO or 1% Triton X-100, 37 °C 2 h"}, "[4]": {"test_system": "Huh7 cells", "details": "concentration as high as 50 μM, 24 h, 37 °C, CCK8"}, "[5]": {"test_system": "BHK21 cells", "details": "concentration as high as 50 μM, 24 h, 37 °C, CCK8"}, "[6]": {"test": "in vivo", "details": "SD, rat, iv, 10 mg kg-1"}, "[7]": {"test_system": "mouse red blood cells", "details": "concentration as high as 100 μM; 2% mouse RBC, 1 h, 37 °C; A560"}, "[8]": {"details": "100 μg Z2-Cy5 i.v.; male ICR mice"}, "[9]": {"details": "rat, in vivo, iv, 10 mg/kg"}, "[10]": {"details": "SD rats, n=3, serum"}, "[11]": {"test": "Safety of Z2 for pregnant ICR mice and fetuses", "assay_type": "in vivo"}, "[12]": {"test_system": "Vero cells", "details": "concentration as high as 50 μM, 24 h, 37 °C, CCK8"}, "[13]": {"test_system": "DENV-2", "details": "12 h"}, "[14]": {"test_system": "YFV 17D", "details": "read-out: IC50, inhibition of YFV 17D infection; BHK21 cells"}, "[15]": {"test_system": "ZIKV", "test": "Plaque reduction assay in BHK21 cells", "assay_type": "cell-based, Zika virus", "details": "n=3", "procedure": "Supplementary Figure 2: Plaque reduction assay to determine ZIKV infection in BHK21 cells. (a) Plaque reduction assay for Z2. ZIKV was incubated with Z2 or Z2-scr in diﬀerent concentrations for 1.5 h. Then the mixture was added to BHK21 cells seeded in 6-well plates. After 1.5 h, the viral inoculum was removed and 2.5 ml DMEM with 2% FBS and 1% low melting-point agarose overlaid the cells. Four to five days later, the cells were fixed with 4% PFA and stained with 1% crystal violet overnight. (b) Plaque reduction curves. Plaques were counted and percentage of plaque reduction was […]"}, "[16]": {"details": "10-120 mg kg−1 i.v., before and 4 h, 1, 3, 5 days after third injection, P>0.05"}}, "note": "Where no end group is shown, it is not given here."}
{"substance": "Z2-Cy5: Z2 labeled with Cy5 (MAVLGDTAWDFGSVGGALNSLGKGIHQIFGAAF; also: Cy5 label, site not given here)", "values": [{"measurement": "ZIKV-infected BHK21 cells bound by Z2-Cy5 (flow cytometry)", "setting": "[1]", "value": 63.5, "unit": "%"}, {"measurement": "average radiant efficiency in uteruses versus PBS", "setting": "[2]; 100 μg i.v., 1 h, P=0.0148", "value": "significantly higher"}, {"measurement": "average radiant efficiency in liver versus PBS", "setting": "[2]; 100 μg i.v., 1 h, P=0.0275", "value": "significantly higher"}, {"measurement": "average radiant efficiency in bladder versus PBS", "setting": "[2]; 100 μg i.v., 1 h, P=0.0426", "value": "significantly higher"}, {"measurement": "average radiant efficiency in fetuses versus PBS", "setting": "[2]; 100 μg i.v., 1 h, n=9 fetuses, P<0.0001", "value": "significantly higher"}]}
{"substance": "Triton X-100", "values": [{"measurement": "fraction with peak of viral genomic RNA", "setting": "[3]; RT-qPCR", "value": 1, "unit": "fraction No."}, {"measurement": "fraction with peak of E protein", "setting": "[3]; western blot", "value": 7, "unit": "fraction No."}]}
{"substance": "MAVLGDTAWDFGSVGGALNSLGKGIHQIFGAAF [Z2] [listing 1 of 2 here]", "values": [{"measurement": "cytotoxic effect", "setting": "[4]", "value": "no cytotoxic effect"}, {"measurement": "cytotoxic effect", "setting": "[5]", "value": "no cytotoxic effect"}, {"measurement": "half-life", "setting": "[6]", "value": 2.77, "unit": "h"}, {"measurement": "cytotoxic effect on red blood cells (hemoglobin release)", "setting": "[7]", "value": "no cytotoxic effect"}, {"measurement": "distribution to genital organs (testis, seminal vesicle, epididymis)", "setting": "[8]", "value": "could distribute to the genital organs"}, {"measurement": "AUC(0-inf)", "setting": "[9]", "value": 0.557, "unit": "µg·h/mL"}, {"measurement": "AUC(0-t)", "setting": "[9]", "value": 0.548, "unit": "µg·h/mL"}, {"measurement": "Tmax", "setting": "[9]", "value": 0.25, "unit": "h"}, {"measurement": "Kel, elimination constant", "setting": "[10]; 10 mg kg-1 i.v. tail vein, LC-MS/MS, noncompartmental", "value": 0.250, "unit": "h⁻¹"}, {"measurement": "Cmax", "setting": "[10]; 10 mg kg-1 i.v., concentration data dose-normalized", "value": 0.7546, "unit": "µg/mL"}, {"measurement": "average litter size of the offspring", "setting": "[11]; 10 mg kg−1 i.v. daily for 3 days, n=5, PBS 10.4±1.5", "value": "10.2±1.6"}, {"measurement": "average litter size of the offspring", "setting": "[11]; 20 mg kg−1 i.v. daily for 3 days, n=6", "value": "10.5±2.0"}, {"measurement": "average litter size of the offspring", "setting": "[11]; 40 mg kg−1 i.v. daily for 3 days, n=5", "value": "10.4±2.1"}, {"measurement": "average litter size of the offspring", "setting": "[11]; 80 mg kg−1 i.v. daily for 3 days, n=5", "value": "10.6±1.1"}, {"measurement": "average litter size of the offspring", "setting": "[11]; 120 mg kg−1 i.v. daily for 3 days, n=5", "value": "10.8±2.6"}, {"measurement": "safe dose relative to dose protecting against ZIKV in vivo", "setting": "[11]; 120 mg kg−1 versus 10 mg kg−1", "value": 11, "unit": "fold"}, {"measurement": "serum ALT versus PBS group", "setting": "[11]; [16]", "value": "no significant difference"}, {"measurement": "serum creatinine versus PBS group", "setting": "[11]; [16]", "value": "no significant difference"}, {"measurement": "histopathology (H&E) of livers, kidneys, brains, spleens of mothers and pups", "setting": "[11]; 10-120 mg kg−1 i.v., versus PBS", "value": "no pathological abnormality"}, {"measurement": "body weight changes of mothers and pups", "setting": "[11]; i.v. 10, 20, 40, 80, 120 mg kg−1 daily for 3 days versus PBS", "value": "almost the same among the six groups"}, {"measurement": "penetration of the placental barrier", "setting": "[2]; injected intravenously or intraperitoneally, pregnant ICR mice", "value": "can penetrate through the placental barrier"}, {"measurement": "cytotoxic effect", "setting": "[12]", "value": "no cytotoxic effect"}]}
{"substance": "MAVLGDTAWDFGSVGGALNSLGKGIHQIFGAAF [Z2] [listing 2 of 2 here]", "values": [{"measurement": "IC50", "setting": "[13]", "value": "~4", "unit": "µM"}, {"measurement": "IC50", "setting": "[14]", "value": "~5", "unit": "µM"}, {"measurement": "IC50", "setting": "[15]", "value": "2.61 ± 0.46", "unit": "µM"}]}
